{"source": "patent US8481544B2", "about": "“Antibacterial compositions” (Biota Europe Limited, priority 2006, dated 2013)", "data": [{"test_system": "Enterococcus faecalis ATCC 29212", "assay": "MIC against Enterococcus faecalis ATCC 29212", "format": "cell-based", "conditions": "ATCC29212; Enterococcus faecalis ATCC 29212; read-out: MICs against Enterococcus faecalis, Activity", "procedure": "Institute. Methods for Dilution Antimicrobial Susceptibility Tests for Bacteria That Grow Aerobically; Approved Standard—Seventh Edition. Document M7-A7. CLSI, Wayne, Pa., 2006; Clinical Laboratories and Standards Institute. Methods for Antimicrobial Susceptibility Testing of Anaerobic Bacteria; Approved Standard—Sixth Edition. Document M11-A6. CLSI, Wayne, Pa., 2004).\nCompounds of this invention were tested for antimicrobial activity by susceptibility testing in liquid or on solid media. MICs for compounds against each strain were determined by the broth microdilution or agar dilution method according to the guidelines of the Clinical Laboratories and Standards Institute, formerly the National Committee for Clinical Laboratory Standards (Clinical Laboratories and Standards Institute. Methods for Dilution Antimicrobial Susceptibility Tests for Bacteria That Grow Aerobically; Approved Standard—Seventh Edition. Document M7-A7. CLSI, Wayne, Pa., 2006; Clinical Laboratories and Standards Institute. Methods for Antimicrobial Susceptibility Testing of Anaerobic Bacteria; Approved Standard—Sixth Edition. Document M11-A6. CLSI, Wayne, Pa., 2004).", "units": {"MIC": "µg/mL"}, "values": [{"smiles": "CCNC(=O)Nc1nc2cc(-c3cnc(N(C)C)nc3)cc(-c3cccnc3)c2s1", "note": "[Example 25, 1-[5-(2-Dimethylamino-pyrimidin-5-yl)-7-pyridin-3-yl-benzothiazol-2-yl]-3-ethyl-urea]", "MIC": "0.25 to 1"}, {"smiles": "CCNC(=O)Nc1nc2cc(-c3cccnc3)cc(-c3cccc(C#N)n3)c2s1", "note": "[Example 113, 1-[7-(6-Cyano-pyridin-2-yl)-5-pyridin-3-yl-benzothiazol-2-yl]-3-ethyl-urea]", "MIC": "< 0.25"}, {"smiles": "C=CCc1cc(-c2cccnc2)cc2nc(NC(=O)NCC)sc12", "note": "[Example 156, 1-(7-Allyl-5-pyridin-3-yl-benzothiazol-2-yl)-3-ethyl-urea]", "MIC": "0.25 to 1"}, {"smiles": "CCNC(=O)Nc1nc2cc(-c3cccnc3)cc(-c3nc(C)ccc3C#N)c2s1", "note": "[Example 103, 1-[7-(3-Cyano-6-methyl-pyridin-2-yl)-5-pyridin-3-yl-benzothiazol-2-yl]-3-ethyl-urea]", "MIC": "< 0.25"}, {"smiles": "CCNC(=O)Nc1nc2cc(Br)cc(-c3cnn(C)c3)c2s1", "note": "[Example 5, 1-[5-Bromo-7-(1-methyl-1H-pyrazol-4-yl)-benzothiazol-2-yl]-3-ethyl-urea]", "MIC": "2 to 16"}, {"smiles": "CCNC(=O)Nc1nc2cc(-c3ccc(NC(=O)CN(C)C)nc3)cc(-c3ccccn3)c2s1", "note": "[Example 66, 2-Dimethylamino-N-{5-[2-(3-ethyl-ureido)-7-pyridin-2-yl-benzothiazol-5-yl]-pyridin-2-yl}-acetamide]", "MIC": "0.25 to 1"}, {"smiles": "CCNC(=O)Nc1nc2cc(-c3ccc(NC(C)=O)nc3)cc(-c3ccc(N)cn3)c2s1", "note": "[Example 135, N-{5-[7-(5-Amino-pyridin-2-yl)-2-(3-ethyl-ureido)-benzothiazol-5-yl]-pyridin-2-yl}-acetamide]", "MIC": "0.25 to 1"}, {"smiles": "CCNC(=O)Nc1nc2cc(-c3cccnc3)cc(-c3ccc(CO)cn3)c2s1", "note": "[Example 96, 1-Ethyl-3-[7-(5-hydroxymethyl-pyridin-2-yl)-5-pyridin-3-yl-benzothiazol-2-yl]-urea]", "MIC": "< 0.25"}, {"smiles": "CCNC(=O)Nc1nc2cc(-c3cnc(N)nc3)cc(-c3ccccn3)c2s1", "note": "[Example 154, 1-[5-(2-Amino-pyrimidin-5-yl)-7-pyridin-2-yl-benzothiazol-2-yl]-3-ethyl-urea]", "MIC": "< 0.25"}, {"smiles": "CCNC(=O)Nc1nc2cc(-c3ccc(N(C)C)nc3)cc(-c3ccccn3)c2s1", "note": "[Example 38, 1-[5-(6-Dimethylamino-pyridin-3-yl)-7-pyridin-2-yl-benzothiazol-2-yl]-3-ethyl-urea]", "MIC": "0.25 to 1"}, {"smiles": "CCNC(=O)Nc1nc2cc(-c3ccn(C)c(=O)c3)cc(-c3cccnc3)c2s1", "note": "[Example 47, 1-Ethyl-3-[5-(1-methyl-2-oxo-1,2-dihydro-pyridin-4-yl)-7-pyridin-3-yl-benzothiazol-2-yl]-urea]", "MIC": "0.25 to 1"}, {"smiles": "CCNC(=O)Nc1nc2cc(-c3cccnc3)cc(-c3cc(OC)ccn3)c2s1", "note": "[Example 112, 1-Ethyl-3-[7-(4-methoxy-pyridin-2-yl)-5-pyridin-3-yl-benzothiazol-2-yl]-urea]", "MIC": "< 0.25"}, {"smiles": "CCNC(=O)Nc1nc2cc(-c3cncc(C)c3)cc(-c3ccccn3)c2s1", "note": "[Example 36, 1-Ethyl-3-[5-(5-methyl-pyridin-3-yl)-7-pyridin-2-yl-benzothiazol-2-yl]-urea]", "MIC": "< 0.25"}, {"smiles": "CCNC(=O)Nc1nc2cc(-c3cccnc3)cc(-c3cc(N)ccn3)c2s1", "note": "[Example 100, 1-[7-(4-Amino-pyridin-2-yl)-5-pyridin-3-yl-benzothiazol-2-yl]-3-ethyl-urea]", "MIC": "< 0.25"}, {"smiles": "CCNC(=O)Nc1nc2cc(-c3cccnc3)cc(-c3ncco3)c2s1", "note": "[Example 165, 1-Ethyl-3-(7-oxazol-2-yl-5-pyridin-3-yl-benzothiazol-2-yl)-urea]", "MIC": "0.25 to 1"}, {"smiles": "CCNC(=O)Nc1nc2cc(-c3cccnc3)cc(-c3ccc(Cl)cn3)c2s1", "note": "[Example 130, 1-[7-(5-Chloro-pyridin-2-yl)-5-pyridin-3-yl-benzothiazol-2-yl]-3-ethyl-urea]", "MIC": "< 0.25"}, {"smiles": "CCNC(=O)Nc1nc2cc(-c3cccnc3)cc(C(=O)NCC)c2s1", "note": "[Example 152, 2-(3-Ethyl-ureido)-5-pyridin-3-yl-benzothiazole-7-carboxylic acid ethylamide]", "MIC": "2 to 16"}, {"smiles": "CCNC(=O)Nc1nc2cc(-c3cccnc3)cc(-c3cc[nH]n3)c2s1", "note": "[Example 82, 1-Ethyl-3-[7-(1H-pyrazol-3-yl)-5-pyridin-3-yl-benzothiazol-2-yl]-urea]", "MIC": "0.25 to 1"}, {"smiles": "CCNC(=O)Nc1nc2cc(-c3cnc(C#N)nc3)cc(-c3cccnc3)c2s1", "note": "[Example 32, 1-[5-(2-Cyano-pyrimidin-5-yl)-7-pyridin-3-yl-benzothiazol-2-yl]-3-ethyl-urea]", "MIC": "2 to 16"}, {"smiles": "CCNC(=O)Nc1nc2cc(-c3cccnc3)cc(-c3cnn(C)c3)c2s1", "note": "[Example 83, 1-Ethyl-3-[7-(1-methyl-1H-pyrazol-4-yl)-5-pyridin-3-yl-benzothiazol-2-yl]-urea]", "MIC": "0.25 to 1"}, {"smiles": "CCNC(=O)Nc1nc2cc(-c3ccn(C)c(=O)c3)cc(-c3ccccn3)c2s1", "note": "[Example 51, 1-Ethyl-3-[5-(1-methyl-2-oxo-1,2-dihydro-pyridin-4-yl)-7-pyridin-2-yl-benzothiazol-2-yl]-urea]", "MIC": "< 0.25"}, {"smiles": "CCNC(=O)Nc1nc2cc(-c3cnccc3N)cc(-c3cccnc3)c2s1", "note": "[Example 44, 1-[5-(4-Amino-pyridin-3-yl)-7-pyridin-3-yl-benzothiazol-2-yl]-3-ethyl-urea]", "MIC": "2 to 16"}, {"smiles": "CCNC(=O)Nc1nc2cc(-c3cccnc3)cc(-c3ccccc3F)c2s1", "note": "[Example 75, 1-Ethyl-3-[7-(2-fluoro-phenyl)-5-pyridin-3-yl-benzothiazol-2-yl]-urea]", "MIC": "0.25 to 1"}, {"smiles": "CCNC(=O)Nc1nc2cc(-c3cccnc3)cc(-c3ccc(OC)nn3)c2s1", "note": "[Example 105, 1-Ethyl-3-[7-(6-methoxy-pyridazin-3-yl)-5-pyridin-3-yl-benzothiazol-2-yl]-urea]", "MIC": "0.25 to 1"}, {"smiles": "CCNC(=O)Nc1nc2cc(-c3cccnc3)cc(-c3ccsc3)c2s1", "note": "[Example 77, 1-Ethyl-3-(5-pyridin-3-yl-7-thiophen-3-yl-benzothiazol-2-yl)-urea]", "MIC": "0.25 to 1"}, {"smiles": "CCNC(=O)Nc1nc2cc(-c3cnccn3)cc(-c3cnc(N)nc3)c2s1", "note": "[Example 73, 1-[7-(2-Amino-pyrimidin-5-yl)-5-pyrazin-2-yl-benzothiazol-2-yl]-3-ethyl-urea]", "MIC": "2 to 16"}, {"smiles": "CCNC(=O)Nc1nc2cc(-c3cccnc3)cc(-c3ccc(C(N)=O)cn3)c2s1", "note": "[Example 98, 6-[2-(3-Ethyl-ureido)-5-pyridin-3-yl-benzothiazol-7-yl]-nicotinamide]", "MIC": "0.25 to 1"}, {"smiles": "CCNC(=O)Nc1nc2cc(-c3cnn(C)c3)cc(-c3cnn(C)c3)c2s1", "note": "[Example 7, 1-[5,7-Bis-(1-methyl-1H-pyrazol-4-yl)-benzothiazol-2-yl]-3-ethyl-urea]", "MIC": "0.25 to 1"}, {"smiles": "CCNC(=O)Nc1nc2cc(-c3cccnc3)cc(-c3nccc(N)n3)c2s1", "note": "[Example 110, 1-[7-(4-Amino-pyrimidin-2-yl)-5-pyridin-3-yl-benzothiazol-2-yl]-3-ethyl-urea]", "MIC": "< 0.25"}, {"smiles": "CCNC(=O)Nc1nc2cc(-n3ccccc3=O)cc(-c3cccnc3)c2s1", "note": "[Example 141, 1-Ethyl-3-[5-(2-oxo-2H-pyridin-1-yl)-7-pyridin-3-yl-benzothiazol-2-yl]-urea]", "MIC": "2 to 16"}, {"smiles": "CCNC(=O)Nc1nc2cc(-c3cnn(C)c3)cc(Br)c2s1", "note": "[Example 6, 1-[7-Bromo-5-(1-methyl-1H-pyrazol-4-yl)-benzothiazol-2-yl]-3-ethyl-urea]", "MIC": "0.25 to 1"}, {"smiles": "CCNC(=O)Nc1nc2cc(-c3ccc(CCO)nc3)cc(-c3ccccn3)c2s1", "note": "[Example 58, 1-Ethyl-3-{5-[6-(2-hydroxy-ethyl)-pyridin-3-yl]-7-pyridin-2-yl-benzothiazol-2-yl}-urea]", "MIC": "< 0.25"}, {"smiles": "CCNC(=O)Nc1nc2cc(-c3cccnc3)cc(-c3cccc(C)n3)c2s1", "note": "[Example 177, 1-Ethyl-3-[7-(6-methyl-pyridin-2-yl)-5-pyridin-3-yl-benzothiazol-2-yl]-urea]", "MIC": "< 0.25"}, {"smiles": "CCNC(=O)Nc1nc2cc(-c3ccc(NC(C)=O)nc3)cc(-c3ccc(C#N)cn3)c2s1", "note": "[Example 136, N-{5-[7-(5-Cyano-pyridin-2-yl)-2-(3-ethyl-ureido)-benzothiazol-5-yl]-pyridin-2-yl}-acetamide]", "MIC": "< 0.25"}, {"smiles": "CCNC(=O)Nc1nc2cc(-c3cccnc3)cc(-c3ncccc3C(F)(F)F)c2s1", "note": "[Example 128, 1-Ethyl-3-[5-pyridin-3-yl-7-(3-trifluoromethyl-pyridin-2-yl)-benzothiazol-2-yl]-urea]", "MIC": "0.25 to 1"}, {"smiles": "CCNC(=O)Nc1nc2cc(-c3cccnc3)cc(-c3ccc(CN)cn3)c2s1", "note": "[Example 97, 1-[7-(5-Aminomethyl-pyridin-2-yl)-5-pyridin-3-yl-benzothiazol-2-yl]-3-ethyl-urea]", "MIC": "0.25 to 1"}, {"smiles": "CCNC(=O)Nc1nc2cc(-c3cnc(N)nc3)cc(-c3cnccn3)c2s1", "note": "[Example 139, 1-[5-(2-Amino-pyrimidin-5-yl)-7-pyrazin-2-yl-benzothiazol-2-yl]-3-ethyl-urea]", "MIC": "< 0.25"}, {"smiles": "CCNC(=O)Nc1nc2cc(-c3cccnc3)cc(-c3cccnc3OC)c2s1", "note": "[Example 85, 1-Ethyl-3-[7-(2-methoxy-pyridin-3-yl)-5-pyridin-3-yl-benzothiazol-2-yl]-urea]", "MIC": "0.25 to 1"}, {"smiles": "CCNC(=O)Nc1nc2cc(-c3cccnc3)cc(-c3cncc(N)n3)c2s1", "note": "[Example 123, 1-[7-(6-Amino-pyrazin-2-yl)-5-pyridin-3-yl-benzothiazol-2-yl]-3-ethyl-urea]", "MIC": "< 0.25"}, {"smiles": "CCNC(=O)Nc1nc2cc(-c3cncc(Cl)c3)cc(-c3cccnc3)c2s1", "note": "[Example 48, 1-[5-(5-Chloro-pyridin-3-yl)-7-pyridin-3-yl-benzothiazol-2-yl]-3-ethyl-urea]", "MIC": "0.25 to 1"}]}]}
